Where “and” joins values, the source holds several entries; their conditions need not be identical. Identical values can stand only once. Like-named read-outs stand apart in the source and are kept apart here.

Data set [1] in a line: cytotoxicity (minimum toxic concentration) in the infected Vero cell cultures. Conditions: monkey; minimum concentration of test compound which caused cytotoxicity; Vero cells, highest concentration tested 100 µg/ml; read-out: MTD. Format: cell-based, African Green Monkey. The protocol: (§1) Vero (African Green Monkey Kidney) cells were grown to confluence in 24 well multidishes, each well being 1.6 cm in diameter. The cells were infected with Herpes Simplex type 1 virus (HFEM strain) and overlaid with 0.5 mL of 0.9% agarose (w/v) in maintenance medium in concentrations ranging from 100 to 0.03 µg/ml in half-log dilution steps, were added in 0.5 mL volume. The virus infected cultures were then incubated at 37 °C for 4 days before fixing in 4% formaldehyde solution and staining with carbolfuchsin.

Data set [2] relates to Herpes Simplex type 1 virus (HFEM strain). Nature of the data set: plaque reduction assay in Vero cells infected with Herpes Simplex type 1 virus. Format: cell-based. The protocol: as §1
[3] abbreviates: Human alphaherpesvirus 1, 96 h, concentration causing 50% reduction in number of virus plaques, Vero cells, HSV-1 HFEM strain, 4 days at 37 C, read-out: PDD50 (the source's name).
[4] abbreviates: Human alphaherpesvirus 1, 96 h, same PD50 expressed in µM, Vero cells, HSV-1 HFEM strain, 4 days at 37 C, read-out: PDD50 (the source's name).
The mark [5] stands for this setting: Human alphaherpesvirus 1, Vero, 96 h, read-out: PDD50.

Take `O=C(CCl)OC[C@H]1O[C@@H](n2cc(/C=C/Br)c(=O)[nH]c2=O)C[C@@H]1OC(=O)CCl` [Example 1, E-5-(2-Bromovinyl)-3',5'-bis (chloroacetyl)-2'-deoxyuridine]: the MCC at 96 h in data set [1] is more than 100 µg/mL. In addition, the EC50 in data set [2] (setting [3]) came to 0.14 µg/mL; in data set [2] (setting [4]), 0.29 µM.
The matching figures for `O=C(CCl)OC[C@H]1O[C@@H](n2cc(/C=C/Br)c(=O)[nH]c2=O)C[C@@H]1O` [Example 2, E-5-(2-Bromovinyl)-5'-chloroacetyl-2'-deoxyuridine]: more than 100 µg/mL, 0.12 µg/mL and 0.29 µM.
For `CC(Cl)C(=O)OC[C@H]1O[C@@H](n2cc(/C=C/Br)c(=O)[nH]c2=O)C[C@@H]1OC(=O)C(C)Cl` (stereo partly drawn) [Example 4], in that order: more than 100 µg/mL, 0.14 µg/mL and 0.27 µM.
For `CC(Cl)C(=O)OC[C@H]1O[C@@H](n2cc(/C=C/Br)c(=O)[nH]c2=O)C[C@@H]1O` (stereo partly drawn) [Example 5], in that order: more than 100 µg/mL, 0.14 µg/mL and 0.33 µM.
On to `CCCN(CCC)S(=O)(=O)c1ccc(C(=O)OCC(=O)OC[C@H]2O[C@@H](n3cc(/C=C/Br)c(=O)[nH]c3=O)C[C@@H]2OC(=O)COC(=O)c2ccc(S(=O)(=O)N(CCC)CCC)cc2)cc1` [Example 6, E-5-(2-Bromovinyl)-3',5'-Bis (4-dipropylsulphamoylbenzoyloxyacetyl)-2'-deoxyuridine], for which the MCC at 96 h in data set [1] was more than 100 µg/mL. The EC50 in data set [2] (setting [3]) was 2.03 µg/mL; in data set [2] (setting [4]), 2.06 µM.
The matching figures for `CCCN(CCC)S(=O)(=O)c1ccc(C(=O)OCC(=O)OC[C@H]2O[C@@H](n3cc(/C=C/Br)c(=O)[nH]c3=O)C[C@@H]2O)cc1` [Example 7, E-5-(2 Bromovinyl)-5'-(4-dipropylsulphamoylbenzoyloxyacetyl)-2'-deoxyuridine]: more than 100 µg/mL, 0.24 µg/mL and 0.37 µM.
The matching figures for `CCCN(CCC)S(=O)(=O)c1ccc(C(=O)OCC(=O)O[C@H]2C[C@H](n3cc(/C=C/Br)c(=O)[nH]c3=O)O[C@@H]2CO)cc1` [Example 8, E-5-(2-Bromovinyl)-3'-(4-dipropylsulphanoylbenzoyloxyacetyl)-2'-deoxyuridine]: more than 100 µg/mL, 0.22 µg/mL and 0.33 µM.
For `CC(C)(Oc1ccc(Cl)cc1)C(=O)OCC(=O)OC[C@H]1O[C@@H](n2cc(/C=C/Br)c(=O)[nH]c2=O)C[C@@H]1OC(=O)COC(=O)C(C)(C)Oc1ccc(Cl)cc1` [Example 9, E-5-(2 Bromovinyl)-3',5'-bis(2-(4-chlorophenoxy)-2-methylpropionyloxy-acetyl]-2'-deoxyuridine], in that order: more than 100 µg/mL, 1.47 µg/mL and 1.75 µM.
On to `CC(=O)OC(C)C(=O)OC[C@H]1O[C@@H](n2cc(/C=C/Br)c(=O)[nH]c2=O)C[C@@H]1O` (stereo partly drawn) [Example 10, E-5-(2-Bromovinyl)-5'-(2-acetoxypropionyl)-2'-deoxyuridine], for which, in data set [1], the MCC at 96 h was more than 100 µg/mL. Moreover, the EC50 turned out to be 0.18 µg/mL in data set [2] (setting [3]) and 0.4 µM in data set [2] (setting [4]).
Regarding `CC(C)(C)[Si](C)(C)O[C@@H](Cc1ccccc1)C(=O)OC[C@H]1O[C@@H](n2cc(/C=C/Br)c(=O)[nH]c2=O)C[C@@H]1OC(=O)[C@H](Cc1ccccc1)O[Si](C)(C)C(C)(C)C` [Example 18, E-5-(2-Bromovinyl)-3',5'-bis(L-2-t-butyldimethylsilyloxy-3-penylpropionyl)-2'-deoxyuridine], the MCC at 96 h in data set [1] is more than 100 µg/mL. Also, the EC50 in data set [2] (setting [5]) is more than 100 µg/mL.
Take `O=C(OC[C@H]1O[C@@H](n2cc(/C=C/Br)c(=O)[nH]c2=O)C[C@@H]1OC(=O)[C@@H](O)Cc1ccccc1)[C@@H](O)Cc1ccccc1` [Example 19, E-5-(2-bromovinyl)-3', 5' -bis(L-2-hydroxy-3-phenylpropionyl)-2'-deoxyuridine]: in data set [1], the MCC at 96 h was more than 100 µg/mL. Moreover, the EC50 in data set [2] (setting [3]) amounted to 0.43 µg/mL; in data set [2] (setting [4]) it was 0.68 µM.
For `O=C(O[C@H]1C[C@H](n2cc(/C=C/Br)c(=O)[nH]c2=O)O[C@@H]1CO)C(Cl)c1ccccc1` (stereo partly drawn) [Example 20, E-5-(2-Bromovinyl)-3'-(2-chlorophenylacetyl)-2'-deoxyuridine], in that order: more than 100 µg/mL, 0.18 µg/mL and 0.37 µM.
For the compound `O=C(OC[C@H]1O[C@@H](n2cc(/C=C/Br)c(=O)[nH]c2=O)C[C@@H]1O)C(Cl)c1ccccc1` (stereo partly drawn) [Example 21], in data set [1], the MCC at 96 h was more than 100 µg/mL. Moreover, the results for the EC50 in data set [2] (setting [3]) and in data set [2] (setting [4]) were 0.07 µg/mL and 0.14 µM, respectively.
For `O=C(OC[C@H]1O[C@@H](n2cc(/C=C/Br)c(=O)[nH]c2=O)C[C@@H]1OC(=O)C(Cl)c1ccccc1)C(Cl)c1ccccc1` (stereo partly drawn) [Example 22], in that order: more than 100 µg/mL, 0.34 µg/mL and 0.53 µM.
As for `O=C(OC[C@H]1O[C@@H](n2cc(/C=C/Br)c(=O)[nH]c2=O)C[C@@H]1O)[C@@H](O)c1ccccc1` [Example 23, 5-(E-2-Bromovinyl)-2'-deoxy-5'-O-[(2S)-hydroxyphenylacetyl]uridine], the MCC at 96 h in data set [1] was more than 100 µg/mL. For the same compound, the EC50 in data set [2] (setting [3]) was determined as 0.16 µg/mL; in data set [2] (setting [4]) it was 0.34 µM.
For `O=C(OC[C@H]1O[C@@H](n2cc(/C=C/Br)c(=O)[nH]c2=O)C[C@@H]1OC(=O)[C@@H](O)c1ccccc1)[C@@H](O)c1ccccc1` [Example 24, 5-(E-2-Bromovinyl)-2'-deoxy-3', 5'-di-O-[(2S)-hydroxyphenylacetyl]uridine], in that order: more than 100 µg/mL, 0.45 µg/mL and 0.75 µM.
The matching figures for `CC(C)C[C@H](O)C(=O)OC[C@H]1O[C@@H](n2cc(/C=C/Br)c(=O)[nH]c2=O)C[C@@H]1O` [Example 25, 5-(E-2-Bromovinyl)-2'-deoxy-5'-0-(L-2-hydroxy-4-methyl-pentanoyl)uridine]: more than 100 µg/mL, 0.15 µg/mL and 0.34 µM.
The matching figures for `CC(C)C[C@H](O)C(=O)OC[C@H]1O[C@@H](n2cc(/C=C/Br)c(=O)[nH]c2=O)C[C@@H]1OC(=O)[C@@H](O)CC(C)C` [Example 26, 5-(E-2-Bromovinyl)-2'-deoxy-3',5-di-O-(L-2-hydroxy-4-methylpentanoyl)uridine]: more than 100 µg/mL, 0.16 µg/mL and 0.29 µM.
On to `COCC(=O)OC[C@H]1O[C@@H](n2cc(/C=C/Br)c(=O)[nH]c2=O)C[C@@H]1O` [Example 27, 5-(E-2-Bromovinyl)-2'-deoxy-5'-O-(methoxyacetyl)uridine], for which the MCC at 96 h in data set [1] was more than 100 µg/mL. Also, the results for the EC50 in data set [2] (setting [3]) and in data set [2] (setting [4]) were 0.12 µg/mL and 0.3 µM, respectively.
The matching figures for `COCC(=O)OC[C@H]1O[C@@H](n2cc(/C=C/Br)c(=O)[nH]c2=O)C[C@@H]1OC(=O)COC` [Example 28, 5-(E-2-Bromovinyl)-2'-deoxy-3',5'-di-O-(methoxyacetyl)-uridine]: more than 100 µg/mL, 0.17 µg/mL and 0.36 µM.
For `O=C(OC[C@H]1O[C@@H](n2cc(/C=C/Br)c(=O)[nH]c2=O)C[C@@H]1O)[C@H](O)c1ccccc1` [Example 29], in that order: more than 100 µg/mL, 0.22 µg/mL and 0.47 µM.
The matching figures for `O=C(OC[C@H]1O[C@@H](n2cc(/C=C/Br)c(=O)[nH]c2=O)C[C@@H]1OC(=O)[C@H](O)c1ccccc1)[C@H](O)c1ccccc1` [Example 30]: more than 100 µg/mL, 0.66 µg/mL and 1.1 µM.
Consider `CC(C)C[C@H](O[Si](C)(C)C(C)(C)C)C(=O)OC[C@H]1O[C@@H](n2cc(/C=C/Br)c(=O)[nH]c2=O)C[C@@H]1O` [Example 31, 5-(E-2-Bromovinyl)-5'-O-(L-2-t-butyldimethylsilyloxy-4-methylpentanoyl)-2'-deoxyurudine], for which the MCC at 96 h in data set [1] was more than 100 µg/mL. Also, the EC50 in data set [2] (setting [5]) is 0.53 µg/mL and 940 nM.
Take `CC(C)C[C@H](O[Si](C)(C)C(C)(C)C)C(=O)OC[C@H]1O[C@@H](n2cc(/C=C/Br)c(=O)[nH]c2=O)C[C@@H]1OC(=O)[C@H](CC(C)C)O[Si](C)(C)C(C)(C)C` [Example 32, 5-(E-2-Bromovilnyl)-3' ,5'-di-O-(L-2-t-butyldimethylsilyloxy-4-methylpentanoyl)-2'-deoxyuridirie]: the MCC at 96 h in data set [1] was more than 100 µg/mL. In data set [2] (setting [5]), the EC50 was 4.9 µg/mL and 6.2 µM.
Take `CCC(Br)C(=O)OC[C@H]1O[C@@H](n2cc(/C=C/Br)c(=O)[nH]c2=O)C[C@@H]1O` (stereo partly drawn) [Example 33, 5-(E-2-Bromovin^yl)-5'-0-(2-bromobutyryl)-2'-deoxyuridine]: the MCC at 96 h in data set [1] is more than 100 µg/mL. Besides, the EC50 in data set [2] (setting [3]) worked out at 0.16 µg/mL; in data set [2] (setting [4]) it was 0.37 µM.
For `CCC(Br)C(=O)OC[C@H]1O[C@@H](n2cc(/C=C/Br)c(=O)[nH]c2=O)C[C@@H]1OC(=O)C(Br)CC` (stereo partly drawn) [Example 34, 5-(E-2-Bromovinyl)-3'-5'-di-O-(2-bromobutyryl) -2'-deoxyuridine], in that order: 100 µg/mL, 0.2 µg/mL and 0.32 µM.
As to `O=C(COc1ccccc1)OC[C@H]1O[C@@H](n2cc(/C=C/Br)c(=O)[nH]c2=O)C[C@@H]1O` [Example 35, 5-(E-2-Bromovinyl)-2'-deoxy-5'-O-(phenoxyacetyl)uridine], in data set [1], the MCC at 96 h was more than 100 µg/mL. Besides, the EC50 in data set [2] (setting [3]) worked out at 0.18 µg/mL; in data set [2] (setting [4]) it was 0.38 µM.

The values above are taken from patent publication EP0097039A1, “5-(E-2-halovinyl)-2'-deoxyuridine derivatives, processes for their preparation, pharmaceutical compositions containing them, and their use in treating viral infections” (BEECHAM GROUP PLC, priority 1982, dated 1983).
